From US11053204B2, “Pyrimidinyloxy benzene derivatives as herbicides” (FMC Corporation, priority 2015, dated 2021)

How the values were obtained:
Assay type in all cases: in vivo
corn (Zea mays) = test: Test A postemergence, visual injury rating
Method in brief: (§1)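 Scoring: eye-based comparison with untreated controls, 0 for no effect through 100 for complete control, at about day 10. Treatments: directed soil spray preemergence; foliar spray postemergence on 2–10 cm plants at the one- to two-leaf stage. Medium: loam soil with sand.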

[1] = test system: ragweed (common ragweed, Ambrosia elatior); test: Test A postemergence, visual injury rating
Method in brief: as §1

kochia (Kochia scoparia) = test: Test A postemergence, visual injury rating
Method in brief: as §1

[2] = test system: barnyardgrass (Echinochloa crus-galli); test: Test A postemergence, visual injury rating; details: 0 is no effect, 100 is complete control; for Barnyardgrass plant response rating: 0 to 100 scale, approximately 10 days
Method in brief: as §1

[3] = test system: giant foxtail (Setaria faberii); test: Test A postemergence, visual injury rating
Method in brief: as §1

[4] = test system: blackgrass (Alopecurus myosuroides); test: Test A postemergence, visual injury rating
Method in brief: as §1

[5] = test system: pigweed (Amaranthus retroflexus); test: Test A postemergence, visual injury rating
Method in brief: as §1

[6] = test system: galium (catchweed bedstraw, Galium aparine); test: Test A postemergence, visual injury rating
Method in brief: as §1

[7] = test system: wheat (Triticum aestivum); test: Test A postemergence, visual injury rating
Method in brief: as §1

[8] = test system: Italian ryegrass (Lolium multiflorum); test: Test A postemergence, visual injury rating
Method in brief: as §1

soybean (Glycine max) = test: Test C postemergence, plant response rating; details: for Soybean plant response rating: scale 0 to 100 (0 no effect, 100 complete control)
Method in brief: (§2)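 Visual injury score, 0 = no effect, 100 = complete control, assigned against untreated controls after 13 to 15 d in the greenhouse. Compounds were applied in a surfactant-containing non-phytotoxic solvent mix, preemergence to seeded loam/sand or silt loam soil, or postemergence to 1- to 4-leaf plants (2 to 18 cm).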

[9] = test system: ragweed (common ragweed, Ambrosia elatior); test: Test C postemergence, plant response rating; details: for Ragweed plant response rating: scale 0 to 100 (0 no effect, 100 complete control)
Method in brief: as §2

[10] = test system: oat, wild (wild oat Avena fatua); test: Test C postemergence, plant response rating; details: for Oat, Wild plant response rating: scale 0 to 100 (0 no effect, 100 complete control)
Method in brief: as §2

[11] = test system: waterhemp (common waterhemp, Amaranthus rudis); test: Test C postemergence, plant response rating; details: for Waterhemp plant response rating: 125 g ai/ha, scale 0 to 100 (0 no effect, 100 complete control)
Method in brief: as §2

[12] = test system: ryegrass, Italian (Italian ryegrass, Lolium multiflorum); test: Test C postemergence, plant response rating; details: for Ryegrass, Italian plant response rating: scale 0 to 100 (0 no effect, 100 complete control)
Method in brief: as §2

[13] = test system: lambsquarters (Chenopodium album); test: Test C postemergence, plant response rating; details: for Lambsquarters plant response rating: scale 0 to 100 (0 no effect, 100 complete control)
Method in brief: as §2

[14] = test system: foxtail, giant (giant foxtail, Setaria faberii); test: Test C postemergence, plant response rating; details: for Foxtail, Giant plant response rating: scale 0 to 100 (0 no effect, 100 complete control)
Method in brief: as §2

[15] = test system: velvetleaf (Abutilon theophrasti); test: Test C postemergence, plant response rating; details: for Velvetleaf plant response rating: 125 g ai/ha, scale 0 to 100 (0 no effect, 100 complete control)
Method in brief: as §2

[16] = test system: chickweed (common chickweed, Stellaria media); test: Test C postemergence, plant response rating; details: for Chickweed plant response rating: scale 0 to 100 (0 no effect, 100 complete control)
Method in brief: as §2

[17] = 31 g ai/ha, 0 to 100 scale, 0 is no effect, 100 is complete control, approximately 10 days
[18] = 125 g ai/ha, 0 is no effect, 100 is complete control
[19] = 125 g ai/ha, 0 to 100 scale, 0 is no effect, 100 is complete control, approximately 10 days
[20] = 31 g ai/ha, 0 to 100 scale (0 no effect, 100 complete control)

N#Cc1cccc(Oc2ncc(Cl)cn2)c1COCCC(F)(F)F [Compound 80]
Corn plant response rating (corn (Zea mays); [17]): 10
Corn plant response rating (0 to 100 scale) (corn (Zea mays); [18]): 60
Ragweed plant response rating [1, 17]: 10
Ragweed plant response rating [1, 19]: 30
Kochia plant response rating (kochia (Kochia scoparia); [17]): 50
Kochia plant response rating (kochia (Kochia scoparia); [19]): 70
Barnyardgrass plant response rating ([2]; 31 g ai/ha): 30
Barnyardgrass plant response rating (0 to 100 scale) ([2]; 125 g ai/ha): 90
Foxtail, Giant plant response rating [3, 17]: 30
Foxtail, Giant plant response rating (0 to 100 scale) [3, 18]: 90
Blackgrass plant response rating [4, 17]: 30
Blackgrass plant response rating (0 to 100 scale) [4, 18]: 90
Pigweed plant response rating [5, 17]: 80
Pigweed plant response rating [5, 19]: 100
Galium plant response rating [6, 17]: 60
Galium plant response rating (0 to 100 scale) [6, 18]: 90
Wheat plant response rating [7, 17]: 0
Wheat plant response rating [7, 19]: 40
Ryegrass, Italian plant response rating [8, 17]: 0
Ryegrass, Italian plant response rating [8, 19]: 50
Plant response rating, Soybean (soybean (Glycine max); 16 g ai/ha, scale of 0 to 100): 60
Plant response rating, Soybean (soybean (Glycine max); 31 g ai/ha, scale 0 to 100): 75
Soybean plant response rating (soybean (Glycine max); 62 g ai/ha): 90
Soybean plant response rating (soybean (Glycine max); 125 g ai/ha): 95
Plant response rating, Ragweed ([9]; 16 g ai/ha, scale of 0 to 100): 5
Plant response rating, Ragweed ([9]; 31 g ai/ha, scale 0 to 100): 10
Ragweed plant response rating ([9]; 62 g ai/ha): 15
Ragweed plant response rating ([9]; 125 g ai/ha): 35
Plant response rating, Oat, Wild ([10]; 16 g ai/ha, scale of 0 to 100): 0
Plant response rating, Oat, Wild ([10]; 31 g ai/ha, scale 0 to 100): 0
Oat, Wild plant response rating ([10]; 62 g ai/ha): 10
Oat, Wild plant response rating ([10]; 125 g ai/ha): 5
Plant response rating, Waterhemp ([11]; 16 g ai/ha, scale of 0 to 100): 80
Plant response rating, Waterhemp ([11]; 31 g ai/ha, scale 0 to 100): 80
Waterhemp plant response rating [11]: 90
Plant response rating, Ryegrass, Italian ([12]; 16 g ai/ha, scale of 0 to 100): 0
Plant response rating, Ryegrass, Italian ([12]; 31 g ai/ha, scale 0 to 100): 0
Ryegrass, Italian plant response rating ([12]; 62 g ai/ha): 5
Ryegrass, Italian plant response rating ([12]; 125 g ai/ha): 5
Plant response rating, Lambsquarters ([13]; 16 g ai/ha, scale of 0 to 100): 50
Plant response rating, Lambsquarters ([13]; 31 g ai/ha, scale 0 to 100): 75
Lambsquarters plant response rating ([13]; 62 g ai/ha): 80
Lambsquarters plant response rating ([13]; 125 g ai/ha): 85
Plant response rating, Foxtail, Giant ([14]; 16 g ai/ha, scale of 0 to 100): 5
Plant response rating, Foxtail, Giant ([14]; 31 g ai/ha, scale 0 to 100): 10
Foxtail, Giant plant response rating ([14]; 62 g ai/ha): 10
Foxtail, Giant plant response rating ([14]; 125 g ai/ha): 15
Plant response rating, Velvetleaf ([15]; 16 g ai/ha, scale of 0 to 100): 30
Plant response rating, Velvetleaf ([15]; 31 g ai/ha, scale 0 to 100): 35
Velvetleaf plant response rating [15]: 55
Plant response rating, Chickweed ([16]; 16 g ai/ha, scale of 0 to 100): 60
Plant response rating, Chickweed ([16]; 31 g ai/ha, scale 0 to 100): 75
Chickweed plant response rating ([16]; 62 g ai/ha): 75
Chickweed plant response rating ([16]; 125 g ai/ha): 90

O=C(CCCC(F)(F)F)c1c(Cl)cccc1Oc1ncc(Cl)cn1 [Compound 143]
Corn plant response rating (corn (Zea mays); [20]): 10
Corn plant response rating (corn (Zea mays); [19]): 30
Ragweed plant response rating [1, 20]: 20
Ragweed plant response rating [1, 19]: 50
Kochia plant response rating (kochia (Kochia scoparia); [20]): 90
Kochia plant response rating (kochia (Kochia scoparia); [19]): 100
Barnyardgrass plant response rating ([2]; 31 g ai/ha): 20
Barnyardgrass plant response rating ([2]; 125 g ai/ha): 70
Foxtail, Giant plant response rating [3, 20]: 30
Foxtail, Giant plant response rating [3, 19]: 70
Blackgrass plant response rating [4, 20]: 30
Blackgrass plant response rating [4, 19]: 80
Pigweed plant response rating [5, 20]: 100
Pigweed plant response rating [5, 19]: 100
Galium plant response rating [6, 20]: 90
Galium plant response rating [6, 19]: 100
Wheat plant response rating [7, 20]: 10
Wheat plant response rating [7, 19]: 20
Ryegrass, Italian plant response rating [8, 20]: 20
Ryegrass, Italian plant response rating [8, 19]: 80
Plant response rating, Soybean (soybean (Glycine max); 16 g ai/ha, scale of 0 to 100): 30
Plant response rating, Soybean (soybean (Glycine max); 31 g ai/ha, scale 0 to 100): 40
Soybean plant response rating (soybean (Glycine max); 62 g ai/ha): 55
Soybean plant response rating (soybean (Glycine max); 125 g ai/ha): 65
Plant response rating, Ragweed ([9]; 16 g ai/ha, scale of 0 to 100): 20
Plant response rating, Ragweed ([9]; 31 g ai/ha, scale 0 to 100): 50
Ragweed plant response rating ([9]; 62 g ai/ha): 55
Ragweed plant response rating ([9]; 125 g ai/ha): 55
Plant response rating, Oat, Wild ([10]; 16 g ai/ha, scale of 0 to 100): 10
Plant response rating, Oat, Wild ([10]; 31 g ai/ha, scale 0 to 100): 10
Oat, Wild plant response rating ([10]; 62 g ai/ha): 10
Oat, Wild plant response rating ([10]; 125 g ai/ha): 20
Plant response rating, Waterhemp ([11]; 16 g ai/ha, scale of 0 to 100): 75
Plant response rating, Waterhemp ([11]; 31 g ai/ha, scale 0 to 100): 80
Waterhemp plant response rating [11]: 90
Plant response rating, Ryegrass, Italian ([12]; 16 g ai/ha, scale of 0 to 100): 5
Plant response rating, Ryegrass, Italian ([12]; 31 g ai/ha, scale 0 to 100): 10
Ryegrass, Italian plant response rating ([12]; 62 g ai/ha): 10
Ryegrass, Italian plant response rating ([12]; 125 g ai/ha): 20
Plant response rating, Lambsquarters ([13]; 16 g ai/ha, scale of 0 to 100): 75
Plant response rating, Lambsquarters ([13]; 31 g ai/ha, scale 0 to 100): 90
Lambsquarters plant response rating ([13]; 62 g ai/ha): 90
Lambsquarters plant response rating ([13]; 125 g ai/ha): 95
Plant response rating, Foxtail, Giant ([14]; 16 g ai/ha, scale of 0 to 100): 20
Plant response rating, Foxtail, Giant ([14]; 31 g ai/ha, scale 0 to 100): 10
Foxtail, Giant plant response rating ([14]; 62 g ai/ha): 10
Foxtail, Giant plant response rating ([14]; 125 g ai/ha): 25
Plant response rating, Velvetleaf ([15]; 16 g ai/ha, scale of 0 to 100): 35
Plant response rating, Velvetleaf ([15]; 31 g ai/ha, scale 0 to 100): 55
Velvetleaf plant response rating [15]: 70
Plant response rating, Chickweed ([16]; 16 g ai/ha, scale of 0 to 100): 80
Plant response rating, Chickweed ([16]; 31 g ai/ha, scale 0 to 100): 80
Chickweed plant response rating ([16]; 62 g ai/ha): 85
Chickweed plant response rating ([16]; 125 g ai/ha): 100
